# Data reported in paper PMC8347595, “N-Skatyltryptamines—Dual 5-HT6R/D2R Ligands with Antipsychotic and Procognitive Potential” (Molecules, 2021).
# Key:
# [1] = PAMPA permeability assay
# [2] = molecular target: T1, Human Serotonin 5-HT6R (Homo sapiens, UniProt P50406); assay: 5-HT6R functional assay, agonistic mode (cAMP, 1321N1 cells); format: cell-based
# T1 construct: host or cells: 1321N1 (frozen recombinant cells)
# Procedure: The properties of compounds to inhibit cAMP production induced by a 5-HT6R agonist 5-CT (1000 nM) was evaluated. Compounds were tested in triplicate at eight concentrations (10^−11–10^−4 M). The level of cAMP was measured using frozen recombinant 1321N1 cells expressing the Human Serotonin 5-HT6R (PerkinElmer). Total cAMP was measured using the LANCE cAMP Detection Kit (PerkinElmer), according to the manufacturer’s instructions. For quantification of cAMP levels, 2000 cells/well ([…]) were incubated with a mixture of compounds ([…]) for 30 min at room temperature in a 384-well white opaque microtiter plate. After incubation, the reaction was stopped and cells were lysed by the addition of […] of working solution ([…] ULight-anti-cAMP) for 1 h at room temperature. Time-resolved fluorescence resonance energy transfer (TR-FRET) was detected by an Infinite M1000 Pro (Tecan) using instrument settings from the LANCE cAMP Detection Kit manual. […] The agonistic properties of compounds were determined with an analogous procedure, but without stimulation with 5-CT [10, 36].
# T1 sequence (P50406 whole entry): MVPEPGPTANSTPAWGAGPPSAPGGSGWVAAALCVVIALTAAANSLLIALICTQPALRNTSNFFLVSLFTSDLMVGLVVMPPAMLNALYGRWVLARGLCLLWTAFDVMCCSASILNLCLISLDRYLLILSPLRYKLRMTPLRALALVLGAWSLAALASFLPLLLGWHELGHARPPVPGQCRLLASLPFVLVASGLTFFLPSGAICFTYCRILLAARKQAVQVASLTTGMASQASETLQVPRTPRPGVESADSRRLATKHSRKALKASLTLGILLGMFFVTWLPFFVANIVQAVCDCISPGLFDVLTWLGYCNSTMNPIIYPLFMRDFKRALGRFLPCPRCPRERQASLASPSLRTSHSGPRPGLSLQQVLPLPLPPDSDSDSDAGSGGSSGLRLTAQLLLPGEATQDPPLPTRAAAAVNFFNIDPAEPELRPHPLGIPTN
structure (smiles),measurement,setting,value
Brc1cccc2c(CNCCc3c[nH]c4ccccc34)c[nH]c12 [Compound 18],PAMPA Pe ± SD,"[1]; 200 µM, PBS pH 7.4, 5 h, triplicate",3.90 10^−6 cm/s
same,"Papp at 5 h, 200 µM","[1]; PAMPA, pH 7.4",3.9 ± 0.56 ×10⁻⁶ cm/s
same,permeability in words,[1]; compared to caffeine and norfloxacin,rather low Pe value but still higher than norfloxacin
same,5-HT6R function in words (agonism),[2],agonist
same,EC50,[2],77 nM
